In the supplement of paper PMC10307832:

Tests used:
Experiment in all cases: relative viability (nuclei count vs DMSO), 5 days (fraction); higher = more cells survive
BI-2536 + Pemetrexed = compound: CC[C@@H]1C(=O)N(C)c2cnc(Nc3ccc(C(=O)NC4CCN(C)CC4)cc3OC)nc2N1C1CCCC1 [BI-2536] + Nc1nc2[nH]cc(CCc3ccc(C(=O)N[C@@H](CCC(=O)O)C(=O)O)cc3)c2c(=O)[nH]1 [Pemetrexed] (partner 0.2 µM)
Summary of the method: (§1)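 Nuclei were stained with Hoechst during a one-step fixation (final 0.05% Triton X-100, 1% formaldehyde, 1 ug/ml Hoechst) carried out 5 days after dosing, then counted on 4× images. The cells, lung cancer lines in 1536-well plates, had been dosed by pin tool the day after seeding with one drug alone or a fixed anchor-drug dose plus five library-drug doses (not always all listed) in √10 steps. Relative viability is the nuclei count in treated wells divided by that in vehicle wells, and each value is the median of duplicate plates.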

BI-2536 + Olaparib = compound: CC[C@@H]1C(=O)N(C)c2cnc(Nc3ccc(C(=O)NC4CCN(C)CC4)cc3OC)nc2N1C1CCCC1 [BI-2536] + O=C(c1cc(Cc2n[nH]c(=O)c3ccccc23)ccc1F)N1CCN(C(=O)C2CC2)CC1 [Olaparib] (partner 8 µM)
Summary of the method: as §1

[1] = compound: CC1CC(=O)N(C2=CN=C(N=C2N1C3CCCC3)NC4=C(C=C(C=C4)C(=O)NC5CCN(CC5)C)OC)C [NPK76-II-72-1] + C[C@]1(O)C[C@@H](c2nc(-c3ccc4ccc(-c5ccccc5)nc4c3)c3c(N)nccn32)C1 [Linsitinib] (partner 1 µM)
Summary of the method: as §1

BI-2536 + Crizotinib = compound: CC[C@@H]1C(=O)N(C)c2cnc(Nc3ccc(C(=O)NC4CCN(C)CC4)cc3OC)nc2N1C1CCCC1 [BI-2536] + C[C@@H](Oc1cc(-c2cnn(C3CCNCC3)c2)cnc1N)c1c(Cl)ccc(F)c1Cl [Crizotinib] (partner 1 µM)
Summary of the method: as §1

| Cell Line | relative viability (BI-2536 + Pemetrexed; first compound 0.01 µM) | relative viability (BI-2536 + Pemetrexed; first compound 0.03162 µM) | relative viability (BI-2536 + Pemetrexed; first compound 0.1 µM) | relative viability (BI-2536 + Pemetrexed; first compound 0.3162 µM) | relative viability (BI-2536 + Pemetrexed; first compound 1 µM) | relative viability (BI-2536 + Olaparib; first compound 0.03162 µM) | relative viability (BI-2536 + Olaparib; first compound 0.1 µM) | relative viability (BI-2536 + Olaparib; first compound 0.3162 µM) | relative viability (BI-2536 + Olaparib; first compound 1 µM) | relative viability ([1]; first compound 0.01 µM) | relative viability ([1]; first compound 0.03162 µM) | relative viability ([1]; first compound 0.1 µM) | relative viability ([1]; first compound 0.3162 µM) | relative viability ([1]; first compound 1 µM) | relative viability (BI-2536 + Crizotinib; first compound 0.01 µM) | relative viability (BI-2536 + Crizotinib; first compound 0.03162 µM) | relative viability (BI-2536 + Crizotinib; first compound 0.1 µM) | relative viability (BI-2536 + Crizotinib; first compound 0.3162 µM) | relative viability (BI-2536 + Crizotinib; first compound 1 µM) | relative viability (BI-2536 + Olaparib; first compound 0.01 µM) |
| --- | --- | --- | --- | --- | --- | --- | --- | --- | --- | --- | --- | --- | --- | --- | --- | --- | --- | --- | --- | --- |
| HOP-62 | 0.394 | 0.29 | 0.225 | 0.109 | 0.151 | 0.309 | 0.191 | 0.101 | 0.089 | 0.908 | 1.05 | 0.922 | 1.05 | 0.89 | 0.986 | 0.949 | 0.78 | 0.134 | 0.12 |  |
| HARA | 0.258 | 0.313 | 0.222 | 0.146 | 0.126 | 0.988 | 0.507 | 0.139 | 0.0972 | 1.03 | 0.921 | 0.929 | 0.77 | 1.03 | 1.03 | 1.07 | 0.636 | 0.139 | 0.196 | 0.8 |
| NCI-H838 | 0.241 | 0.239 | 0.183 | 0.12 | 0.119 | 0.638 | 0.368 | 0.0986 | 0.0726 | 0.935 | 1.05 | 1.11 | 1.01 | 1.03 | 0.886 | 0.711 | 0.232 | 0.156 | 0.114 | 0.731 |
| NCI-H1755 | 0.456 | 0.371 | 0.295 | 0.359 | 0.291 | 0.816 | 0.707 | 0.373 | 0.316 | 0.972 | 1 | 0.947 | 1.01 | 0.985 | 0.893 | 0.751 | 0.594 | 0.315 | 0.25 | 0.945 |
| HCC-78 | 0.981 | 0.874 | 0.932 | 0.895 | 0.847 | 0.904 | 0.774 | 0.47 | 0.204 |  | 0.529 | 0.487 |  | 0.516 | 0.368 | 0.288 | 0.347 | 0.18 | 0.159 | 0.783 |
| IA-LM |  |  |  |  |  | 0.752 | 0.402 | 0.101 | 0.102 | 0.582 | 0.684 | 0.435 | 0.597 | 0.809 | 0.771 | 0.667 | 0.125 | 0.108 | 0.058 | 0.763 |
| NCI-H322M | 0.607 | 0.542 | 0.639 | 0.454 | 0.363 | 0.692 | 0.637 | 0.442 | 0.393 | 0.853 | 1.1 | 0.805 | 0.961 | 0.976 | 0.992 | 0.721 | 0.92 | 0.346 | 0.308 | 0.74 |
| NCI-H1793 | 0.876 | 1.04 | 0.197 | 0.171 | 0.175 | 0.767 | 0.203 | 0.152 | 0.157 | 0.771 | 0.962 | 0.971 | 0.495 | 0.742 |  |  |  |  |  | 0.674 |
| ChaGo-K-1 | 0.268 | 0.264 | 0.215 | 0.179 | 0.17 | 0.308 | 0.265 | 0.164 | 0.15 |  |  |  |  |  | 1.05 | 0.693 | 0.704 | 0.299 | 0.303 | 0.414 |
| NCI-H522 | 1.1 | 0.977 | 1.03 | 0.342 | 0.288 | 0.594 | 0.689 | 0.364 | 0.316 |  |  |  |  |  |  |  |  |  |  | 0.655 |
| NCI-H1299 |  |  |  |  |  | 0.907 | 0.828 | 0.237 | 0.221 | 0.999 | 0.96 | 1.01 | 0.98 | 1.03 | 0.946 | 0.808 | 0.663 | 0.266 | 0.224 | 1.01 |
| NCI-H1650 | 0.383 | 0.297 | 0.288 | 0.166 | 0.136 | 0.689 | 0.609 | 0.166 | 0.143 |  |  |  |  |  | 0.948 | 0.742 | 0.208 | 0.143 | 0.11 | 0.866 |
| NCI-H1648 | 0.878 | 0.511 | 0.41 | 0.293 | 0.265 | 0.887 | 0.545 | 0.23 | 0.275 |  |  |  |  |  |  |  |  |  |  | 0.794 |
| NCI-H727 |  |  |  |  |  | 0.765 | 0.643 | 0.461 | 0.576 | 0.233 | 0.259 | 0.27 | 0.287 | 0.331 | 0.939 | 0.7 | 0.364 | 0.331 | 0.295 | 0.589 |
| NCI-H2342 |  | 0.724 | 0.716 | 0.373 | 0.42 | 0.424 | 0.367 | 0.319 | 0.26 |  |  |  |  |  |  |  |  |  |  |  |
| SW 900 | 0.492 | 0.468 | 0.46 | 0.198 | 0.149 | 1.05 | 0.691 | 0.215 | 0.153 |  |  |  |  |  |  |  |  |  |  | 0.804 |
| NCI-H1395 | 0.73 | 0.643 | 0.34 | 0.323 | 0.402 | 0.396 | 0.329 | 0.364 | 0.355 | 1.08 | 1.17 | 1.22 | 1.13 | 1.22 |  |  |  |  |  | 0.4 |
| A549 |  |  |  |  |  | 0.444 | 0.125 | 0.0214 | 0.0368 | 0.516 | 0.651 | 0.538 | 0.417 | 0.54 | 0.727 | 0.565 | 0.119 | 0.0589 | 0.0294 | 0.267 |
| NCI-H2170 | 0.285 | 0.254 | 0.183 | 0.161 | 0.163 | 0.525 | 0.39 | 0.164 | 0.145 |  |  |  |  |  | 1.09 | 1.13 | 0.611 | 0.244 | 0.288 | 0.597 |
| NCI-H1563 | 0.736 | 0.789 | 0.744 | 0.413 | 0.473 |  |  |  |  | 1.07 | 1.29 | 1.11 | 1.16 | 1.2 | 0.902 | 0.817 | 0.822 | 0.621 | 0.561 |  |
| ABC-1 |  |  |  |  |  | 0.876 | 0.423 | 0.406 | 0.299 | 0.599 | 0.558 | 0.861 | 0.703 | 0.767 | 1.27 | 0.601 | 0.353 | 0.205 | 0.214 | 0.657 |
